Data on two compounds can be found in publication PMC11124822, “Discovery and Anticancer Screening of Novel Oxindole-Based Derivative Bearing Pyridyl Group as Potent and Selective Dual FLT3/CDK2 Kinase Inhibitor” (Pharmaceuticals, 2024).

Where only a bound is given, the exact number is not on record here.

One assay deals with NCI-H522. Kind of assay: NCI-60 antiproliferative screen (SRB). The assay is classed as cell-based, human. As to conditions: 48 h; for inhibition at 10 µM: 10 µM single dose, NCI-H522 (NSCLC), read-out: Growth inhibition (%).
The next assay concerns CNS cancer subpanel. Kind of assay: NCI-60 screen, subpanel summary. In kind it is cell-based, human. The source says: (§1) (Table 5). Moreover, the ratio of the MG-MID of the full-panel to its individual sub-panels offers the selectivity index.
Another assay has as its system Colon cancer subpanel. Kind of assay: NCI-60 screen, subpanel summary. The assay is classed as cell-based, human.
Description: as §1

The subject of another assay is Leukemia subpanel. Kind of assay: NCI-60 screen, subpanel summary. In kind it is cell-based, human.
Description: as §1

The next assay relates to Melanoma subpanel. Kind of assay: NCI-60 screen, subpanel summary. The assay is classed as cell-based, human.
Description: as §1

For the next assay, the system named is NSCL cancer subpanel. Kind of assay: NCI-60 screen, subpanel summary. In kind it is cell-based, human.
Description: as §1

Another assay relates to Prostate cancer subpanel. Kind of assay: NCI-60 screen, subpanel summary. In kind it is cell-based, human.
Description: as §1

A further assay has as its system Renal cancer subpanel. Kind of assay: NCI-60 screen, subpanel summary. The assay is classed as cell-based, human.
Description: as §1

In a further assay the target is T1, FGFR1 (Homo sapiens, UniProt P11362).
T1 construct: purchased Invitrogen/Life Technologies
T1 sequence (P11362 22-822): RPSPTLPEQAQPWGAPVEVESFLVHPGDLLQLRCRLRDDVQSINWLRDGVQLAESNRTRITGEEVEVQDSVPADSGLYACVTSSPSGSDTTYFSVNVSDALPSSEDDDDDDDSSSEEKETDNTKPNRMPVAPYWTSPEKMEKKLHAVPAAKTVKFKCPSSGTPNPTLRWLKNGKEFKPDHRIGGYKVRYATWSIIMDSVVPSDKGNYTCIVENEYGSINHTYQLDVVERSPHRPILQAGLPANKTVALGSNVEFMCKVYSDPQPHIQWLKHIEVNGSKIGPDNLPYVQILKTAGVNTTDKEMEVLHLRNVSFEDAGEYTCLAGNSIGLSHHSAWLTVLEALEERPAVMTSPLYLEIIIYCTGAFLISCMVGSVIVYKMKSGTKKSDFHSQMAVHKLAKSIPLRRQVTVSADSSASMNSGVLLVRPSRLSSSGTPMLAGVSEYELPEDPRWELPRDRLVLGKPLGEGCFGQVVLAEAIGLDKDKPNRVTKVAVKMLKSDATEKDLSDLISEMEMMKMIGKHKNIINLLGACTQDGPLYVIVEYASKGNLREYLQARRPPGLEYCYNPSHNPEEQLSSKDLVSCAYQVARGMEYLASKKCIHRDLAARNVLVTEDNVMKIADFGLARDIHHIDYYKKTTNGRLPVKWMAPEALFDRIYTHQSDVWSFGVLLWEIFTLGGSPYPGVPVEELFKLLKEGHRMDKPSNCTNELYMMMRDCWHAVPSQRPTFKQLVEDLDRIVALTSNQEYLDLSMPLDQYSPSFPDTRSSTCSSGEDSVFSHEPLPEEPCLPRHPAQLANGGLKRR
Kind of assay: Z'-LYTE kinase assay. The assay is classed as biochemical. On the procedure: (§2) The inhibition percentages of the target compound 5l at a concentration of 10 µM were assessed using DMSO as a solvent against ten kinases, namely PTK2B, JAK1, CDK2, FGFR1, IGF1R, VEGFR-2, PDGFRα, PDGFRβ, FLT3, and Src. The Z’-LYTE® technology, which relies on FRET (Fluorescence Resonance Energy Transfer) from Invitrogen/Life Technologies, was employed for this evaluation for all kinases except VEGFR-2. The VEGFR-2 kinase assay was conducted in a 96-well streptavidin-coated plate using a recombinant human VEGFR-2/KDR ELISA kit, following the manufacturer’s instructions. […] Statistical significance was assessed using one-way analysis of variance (ANOVA), followed by the Dunnett test; data are represented as means ± SD.

Another assay deals with T2, IGF1R (Homo sapiens, UniProt P08069).
T2 construct: purchased Invitrogen/Life Technologies
Kind of assay: Z'-LYTE kinase assay. In kind it is biochemical. The protocol:
as §2

The target of another assay is T3, JAK1 (Homo sapiens, UniProt P23458).
T3 construct: purchased Invitrogen/Life Technologies
T3 sequence (P23458 whole entry): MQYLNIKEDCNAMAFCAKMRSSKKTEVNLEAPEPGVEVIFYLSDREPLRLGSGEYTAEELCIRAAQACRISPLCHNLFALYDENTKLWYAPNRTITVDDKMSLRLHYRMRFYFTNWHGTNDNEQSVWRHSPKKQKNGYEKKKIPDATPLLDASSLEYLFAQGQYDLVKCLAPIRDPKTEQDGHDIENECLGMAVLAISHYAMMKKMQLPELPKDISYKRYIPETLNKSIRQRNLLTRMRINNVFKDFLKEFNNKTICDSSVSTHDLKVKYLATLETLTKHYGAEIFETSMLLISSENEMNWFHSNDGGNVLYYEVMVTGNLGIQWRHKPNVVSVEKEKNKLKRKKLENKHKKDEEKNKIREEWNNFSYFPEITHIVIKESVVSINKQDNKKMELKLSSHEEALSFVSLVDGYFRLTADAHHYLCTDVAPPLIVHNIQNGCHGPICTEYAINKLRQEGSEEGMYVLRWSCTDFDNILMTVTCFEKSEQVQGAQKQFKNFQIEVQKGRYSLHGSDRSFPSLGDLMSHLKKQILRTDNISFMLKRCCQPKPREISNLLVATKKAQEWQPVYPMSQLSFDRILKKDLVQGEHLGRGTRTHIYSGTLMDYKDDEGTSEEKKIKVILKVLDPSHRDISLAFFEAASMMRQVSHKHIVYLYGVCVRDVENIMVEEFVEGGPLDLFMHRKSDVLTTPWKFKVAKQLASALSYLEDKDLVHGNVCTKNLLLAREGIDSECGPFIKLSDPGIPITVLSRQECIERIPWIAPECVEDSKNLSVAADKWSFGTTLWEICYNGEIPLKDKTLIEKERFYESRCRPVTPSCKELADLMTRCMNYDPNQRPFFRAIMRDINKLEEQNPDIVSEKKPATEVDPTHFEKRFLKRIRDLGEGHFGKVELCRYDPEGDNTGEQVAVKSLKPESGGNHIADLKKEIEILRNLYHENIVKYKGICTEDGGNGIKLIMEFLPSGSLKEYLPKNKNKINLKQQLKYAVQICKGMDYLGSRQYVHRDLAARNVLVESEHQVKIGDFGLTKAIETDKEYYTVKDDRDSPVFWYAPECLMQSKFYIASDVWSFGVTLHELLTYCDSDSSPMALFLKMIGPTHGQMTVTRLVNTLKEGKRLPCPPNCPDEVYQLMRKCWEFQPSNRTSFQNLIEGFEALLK
Kind of assay: Z'-LYTE kinase assay. The assay is classed as biochemical. The protocol:
as §2

For a further assay, the target named is T4, PDGFRα (Homo sapiens, UniProt P16234).
T4 construct: purchased Invitrogen/Life Technologies
T4 sequence (P16234 24-1089): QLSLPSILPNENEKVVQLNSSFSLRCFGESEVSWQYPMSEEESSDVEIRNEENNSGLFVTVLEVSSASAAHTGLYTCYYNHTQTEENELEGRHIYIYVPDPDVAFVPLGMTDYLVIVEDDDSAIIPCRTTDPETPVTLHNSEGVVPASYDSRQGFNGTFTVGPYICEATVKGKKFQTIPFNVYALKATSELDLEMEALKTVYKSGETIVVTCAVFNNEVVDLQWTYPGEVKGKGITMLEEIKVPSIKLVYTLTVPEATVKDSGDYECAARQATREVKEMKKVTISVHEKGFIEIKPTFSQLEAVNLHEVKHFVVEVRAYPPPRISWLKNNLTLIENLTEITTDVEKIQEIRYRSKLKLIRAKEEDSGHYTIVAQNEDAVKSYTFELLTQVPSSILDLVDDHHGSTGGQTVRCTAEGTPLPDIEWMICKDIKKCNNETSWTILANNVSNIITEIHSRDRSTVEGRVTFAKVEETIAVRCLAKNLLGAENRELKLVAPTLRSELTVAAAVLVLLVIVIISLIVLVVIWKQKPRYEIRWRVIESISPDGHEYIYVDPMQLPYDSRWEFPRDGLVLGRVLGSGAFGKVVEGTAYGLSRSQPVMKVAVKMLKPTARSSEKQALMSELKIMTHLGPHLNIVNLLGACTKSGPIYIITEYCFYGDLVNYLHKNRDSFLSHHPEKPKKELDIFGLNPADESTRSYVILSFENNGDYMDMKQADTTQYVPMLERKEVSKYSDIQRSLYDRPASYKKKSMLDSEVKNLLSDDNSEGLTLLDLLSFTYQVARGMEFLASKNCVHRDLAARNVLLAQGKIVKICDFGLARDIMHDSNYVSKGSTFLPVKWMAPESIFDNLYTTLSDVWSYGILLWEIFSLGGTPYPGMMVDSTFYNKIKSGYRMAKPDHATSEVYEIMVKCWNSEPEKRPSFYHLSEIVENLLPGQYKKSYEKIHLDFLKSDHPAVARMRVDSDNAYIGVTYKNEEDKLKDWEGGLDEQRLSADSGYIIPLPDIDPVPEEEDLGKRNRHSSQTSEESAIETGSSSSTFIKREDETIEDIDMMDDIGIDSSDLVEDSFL
Kind of assay: Z'-LYTE kinase assay. In kind it is biochemical. The protocol: as §2

The target of the next assay is T5, PDGFRβ (Homo sapiens, UniProt P09619).
T5 construct: purchased Invitrogen/Life Technologies
Kind of assay: Z'-LYTE kinase assay. The assay is classed as biochemical. On the procedure:
as §2

Another assay addresses T6, PTK2B (Homo sapiens, UniProt Q14289).
T6 construct: purchased Invitrogen/Life Technologies
Kind of assay: Z'-LYTE kinase assay. The assay is classed as biochemical. The protocol: as §2

The target in another assay is T7, SRC (Homo sapiens, UniProt P12931).
T7 construct: purchased Invitrogen/Life Technologies
T7 sequence (P12931 whole entry): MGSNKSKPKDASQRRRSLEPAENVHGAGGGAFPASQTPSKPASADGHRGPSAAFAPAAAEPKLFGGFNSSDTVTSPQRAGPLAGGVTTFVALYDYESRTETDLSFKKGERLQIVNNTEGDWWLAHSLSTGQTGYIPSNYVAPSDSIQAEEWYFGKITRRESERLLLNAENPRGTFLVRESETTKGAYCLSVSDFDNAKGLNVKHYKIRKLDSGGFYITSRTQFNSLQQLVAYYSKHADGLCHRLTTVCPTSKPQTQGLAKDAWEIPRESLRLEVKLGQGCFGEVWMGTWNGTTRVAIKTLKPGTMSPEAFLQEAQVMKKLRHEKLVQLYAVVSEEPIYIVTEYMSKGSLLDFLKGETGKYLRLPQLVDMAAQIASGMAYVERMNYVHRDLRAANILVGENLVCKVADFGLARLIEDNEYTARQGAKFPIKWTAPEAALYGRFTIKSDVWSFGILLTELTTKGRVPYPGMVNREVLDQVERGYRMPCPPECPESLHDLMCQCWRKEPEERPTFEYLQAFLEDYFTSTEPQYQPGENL
Kind of assay: Z'-LYTE kinase assay. The assay is classed as biochemical. On the procedure: as §2

Another assay has as its target T8, CDK2 (Homo sapiens, UniProt P24941).
T8 construct: purchased Invitrogen/Life Technologies
Kind of assay: Z'-LYTE kinase assay. The assay is classed as biochemical. The protocol: (§3) The Z’-LYTE® technology, which relies on FRET (Fluorescence Resonance Energy Transfer) from Invitrogen/Life Technologies, was employed for this evaluation for all kinases except VEGFR-2. The VEGFR-2 kinase assay was conducted in a 96-well streptavidin-coated plate using a recombinant human VEGFR-2/KDR ELISA kit, following the manufacturer’s instructions. […] Statistical significance was assessed using one-way analysis of variance (ANOVA), followed by the Dunnett test; data are represented as means ± SD.

Another assay has as its target T9, FLT3 (Homo sapiens, UniProt P36888).
T9 construct: purchased Invitrogen/Life Technologies
T9 sequence (P36888 27-993): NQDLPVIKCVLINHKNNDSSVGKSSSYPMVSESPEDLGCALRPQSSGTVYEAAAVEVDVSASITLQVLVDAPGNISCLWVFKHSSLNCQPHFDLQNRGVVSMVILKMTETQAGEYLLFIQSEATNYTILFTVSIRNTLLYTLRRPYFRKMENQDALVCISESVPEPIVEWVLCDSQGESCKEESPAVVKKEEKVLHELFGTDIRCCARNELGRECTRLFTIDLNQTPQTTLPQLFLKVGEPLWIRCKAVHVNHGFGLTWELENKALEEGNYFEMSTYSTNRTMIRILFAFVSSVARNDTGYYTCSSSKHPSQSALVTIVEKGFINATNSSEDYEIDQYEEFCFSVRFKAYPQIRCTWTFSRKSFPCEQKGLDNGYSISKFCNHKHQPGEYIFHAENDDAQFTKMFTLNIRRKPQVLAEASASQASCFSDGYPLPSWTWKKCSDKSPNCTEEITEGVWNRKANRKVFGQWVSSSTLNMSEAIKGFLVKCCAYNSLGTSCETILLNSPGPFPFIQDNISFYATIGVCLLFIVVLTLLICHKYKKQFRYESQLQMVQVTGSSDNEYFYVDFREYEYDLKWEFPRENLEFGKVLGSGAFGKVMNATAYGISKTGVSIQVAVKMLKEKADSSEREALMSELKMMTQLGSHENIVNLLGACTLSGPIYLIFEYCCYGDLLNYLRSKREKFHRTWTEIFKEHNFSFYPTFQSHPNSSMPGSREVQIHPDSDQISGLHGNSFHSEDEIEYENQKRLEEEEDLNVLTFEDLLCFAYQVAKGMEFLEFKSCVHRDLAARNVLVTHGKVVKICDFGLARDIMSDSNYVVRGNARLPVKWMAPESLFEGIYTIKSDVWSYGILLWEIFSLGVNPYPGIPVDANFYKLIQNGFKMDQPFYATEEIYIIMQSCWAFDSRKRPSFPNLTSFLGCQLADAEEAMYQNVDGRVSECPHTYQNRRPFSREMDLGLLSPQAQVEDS
Kind of assay: Z'-LYTE kinase assay. The assay is classed as biochemical. On the procedure: as §3

The next assay deals with SNB-75. Kind of assay: NCI-60 antiproliferative screen (SRB). Particulars: Homo sapiens, SNB-75, 48 h, read-out: Growth inhibition (%).
The mark [1] stands for this setting: three separate experiments ± SD.

T6 sequence (Q14289 whole entry): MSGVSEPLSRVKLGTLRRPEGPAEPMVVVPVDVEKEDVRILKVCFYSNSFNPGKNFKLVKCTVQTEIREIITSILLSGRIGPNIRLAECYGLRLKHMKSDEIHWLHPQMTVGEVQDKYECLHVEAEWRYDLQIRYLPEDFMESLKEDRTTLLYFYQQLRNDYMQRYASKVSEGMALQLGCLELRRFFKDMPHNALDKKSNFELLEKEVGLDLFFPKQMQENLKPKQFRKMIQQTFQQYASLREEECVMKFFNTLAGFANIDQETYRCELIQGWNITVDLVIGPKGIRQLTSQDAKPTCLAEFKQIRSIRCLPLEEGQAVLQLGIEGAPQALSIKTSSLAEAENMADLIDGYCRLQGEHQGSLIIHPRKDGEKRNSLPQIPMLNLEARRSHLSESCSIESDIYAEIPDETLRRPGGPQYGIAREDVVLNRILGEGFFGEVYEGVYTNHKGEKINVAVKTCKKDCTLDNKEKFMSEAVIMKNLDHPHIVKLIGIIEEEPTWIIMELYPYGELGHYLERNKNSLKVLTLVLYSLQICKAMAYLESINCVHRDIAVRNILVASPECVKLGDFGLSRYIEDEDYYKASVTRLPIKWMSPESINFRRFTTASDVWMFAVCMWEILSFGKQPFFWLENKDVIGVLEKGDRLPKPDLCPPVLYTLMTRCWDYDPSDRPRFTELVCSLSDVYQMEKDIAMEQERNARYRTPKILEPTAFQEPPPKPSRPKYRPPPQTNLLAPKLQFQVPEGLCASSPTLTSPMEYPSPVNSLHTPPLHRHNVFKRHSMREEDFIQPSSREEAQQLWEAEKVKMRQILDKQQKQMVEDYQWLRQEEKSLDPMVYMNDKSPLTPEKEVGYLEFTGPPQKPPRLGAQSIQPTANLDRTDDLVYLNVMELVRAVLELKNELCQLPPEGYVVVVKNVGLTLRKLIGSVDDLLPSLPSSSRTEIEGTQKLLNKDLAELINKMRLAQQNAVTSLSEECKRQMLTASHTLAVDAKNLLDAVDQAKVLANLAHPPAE
Description for SNB-75: Anticancer activity was tested against 60 cancer cell lines (NCI-60) after 48h treatments with a single dosage of 10 μM of compounds by using sulforhodamine B assay [39] on the traditional 96-well platform. […] The human cancer cell lines of the NCI-60 panel are grown in RPMI 1640 medium supplemented with 5% FBS (fetal bovine serum) and 2 mM L-glutamine. […] For further analysis of promising compounds, five dose screens were performed against the NCI-60 panel. Drug treatments are performed in 5 doses using 10-fold or ½ log dose dilutions.

With `O=C1Nc2cc(Cl)ccc2C1=Cc1ccc(OCc2cccnc2)cc1` (mixture of isomers) [Compound 5l, (E/Z)-6-Chloro-3-[4-(pyridin-3-ylmethoxy)benzylidene] indolin-2-one], the inhibition at 10 µM is 104% in the assay with NCI-H522 (Homo sapiens); greater than 90% with Colon cancer subpanel (Homo sapiens, 10 µM, colon cancer, read-out: overall inhibition in panel (radar chart)); greater than 90% in the assay on Leukemia subpanel (Homo sapiens, 10 µM, leukemia, read-out: overall inhibition in panel (radar chart)); greater than 90% in the assay on Melanoma subpanel (Homo sapiens, 10 µM, melanoma, read-out: overall inhibition in panel (radar chart)); 24.1% against FGFR1; 2.88% against IGF1R. For the same compound, the inhibition at 10 µM at JAK1 came out at 4.17%; against PDGFRα it was 43.5%; against PDGFRβ it was 26.6%; against PTK2B it was 9.96%; on SRC, 10.9%; on CDK2 (10 µM, CDK2) it was 87.7%. In addition, the inhibition at 10 µM against FLT3 (10 µM, FLT3) was found to be 92.6%; in the assay on SNB-75 it was 18.3%. For the same compound, the concentration for 50% growth inhibition (GI50) with NCI-H522 (Homo sapiens, five-dose, NCI-H522) stood at 12.3 µM; in the assay on CNS cancer subpanel (Homo sapiens, five-dose, CNS cancer subpanel, read-out: MG-MID (GI50)), 11 µM; in the assay on Colon cancer subpanel (Homo sapiens, five-dose, Colon cancer subpanel, read-out: MG-MID (GI50)), 5.97 µM; in the assay on Leukemia subpanel (Homo sapiens, five-dose, Leukemia subpanel, read-out: MG-MID (GI50)), 3.39 µM; with Melanoma subpanel (Homo sapiens, five-dose, Melanoma subpanel, read-out: MG-MID (GI50)) it was 10.9 µM; with NSCL cancer subpanel (Homo sapiens, five-dose, NSCL cancer subpanel, read-out: MG-MID (GI50)), 11.7 µM. Further, the GI50 was 9.78 µM in the assay on Prostate cancer subpanel (Homo sapiens, five-dose, Prostate cancer subpanel, read-out: MG-MID (GI50)) and 19.8 µM in the assay on Renal cancer subpanel (Homo sapiens, five-dose, Renal cancer subpanel, read-out: MG-MID (GI50)). This compound also yielded a TGI in the assay on NCI-H522 (five-dose, NCI-H522) of 82.20 µM. Moreover, the “Selectivity Index” value with CNS cancer subpanel (ratio of full-panel MG-MID to CNS cancer subpanel MG-MID) is reported as 1.11; in the assay with Colon cancer subpanel (ratio of full-panel MG-MID to Colon cancer subpanel MG-MID), 2.05; in the assay on Leukemia subpanel (ratio of full-panel MG-MID to Leukemia subpanel MG-MID) it was 3.61; with Melanoma subpanel (ratio of full-panel MG-MID to Melanoma subpanel MG-MID), 1.12; with NSCL cancer subpanel (ratio of full-panel MG-MID to NSCL cancer subpanel MG-MID), 1.05; in the assay on Prostate cancer subpanel (ratio of full-panel MG-MID to Prostate cancer subpanel MG-MID), 1.25. Further, the “Selectivity Index” value with Renal cancer subpanel (ratio of full-panel MG-MID to Renal cancer subpanel MG-MID) was determined as 0.62. Besides, the concentration for half-maximal inhibition (IC50) against CDK2 (setting [1]) was found to be 0.00817 ± 0.00032 µM; against FLT3 (setting [1]), 0.0362 ± 0.00107 µM.
For the compound `O=C1Nc2ccc(Cl)cc2C1=Cc1ccc(OCc2ccccn2)cc1` (mixture of isomers) [Compound 5g, (E/Z)-5-Chloro-3-[4-(pyridin-2-ylmethoxy)benzylidene] indolin-2-one], the figures for the inhibition at 10 µM in the assay on NCI-H522 (Homo sapiens) and with SNB-75 were 34% and -12.6%, respectively.

For orientation: inhibition means the change of the read-out against control, counted positive when it falls. Usually GI50 stands for the concentration at which growth is held to half of that of the control. One may read the TGI as the concentration at which net growth stops. Higher therefore signals lower sensitivity of the cells. By IC50 is commonly meant the point on the concentration scale where inhibition reaches its midpoint. High values mean weaker potency, low ones greater potency.
